From PMC6271935, “Synthesis and Broad-Spectrum Antiviral Activity of Some Novel Benzo-Heterocyclic Amine Compounds” (Molecules, 2014)

Legend:
[1] = test system: Vero cells; assay: Cytotoxicity in Vero cells (CPE); conditions: 48 h, Reed & Muench
Method: (§1) The cytotoxicity of the compounds in MDCK, Vero and HepG2.2.15 cells was monitored via cytopathic effect (CPE) assays. The MDCK and Vero cells (2.5 × 10^4 /well) were plated in a 96-well plate. Following a 24 h hold period, the monolayer of cells was incubated in the presence of various concentrations of the test compounds. […] The TC50 value was calculated using Reed & Muench analysis.

[2] = test system: HCV; assay: Anti-HCV assay in Huh7.5 cells, intracellular HCV RNA by real time RT-PCR; type: cell-based; conditions: Hepatitis C virus, 96 h
[3] = test system: Influenza A/hanfang/359/95; assay: microbe, parasite or virus in culture; type: cell-based; conditions: for IC50: Influenza A virus, MDCK
[4] = test system: Huh7.5 cells; assay: Cytotoxicity in Huh7.5 cells (MTT); type: cell-based, human; conditions: 96 h
Method: The Huh7.5 cells (1 × 10^4 cells/well) were plated in 96-well plates. Six hours later the culture media was replaced with fresh medium containing the test compounds at various concentrations. Cytotoxicity was evaluated with the 3-(4,5-dimethylthiazol-2-yl)-2,5-diphenyltetrazolium bromide (MTT) assay after 96 h.
Huh7.5 cells were seeded at a density of 3 × 10^4 cells/cm^2. After 24 h of incubation, the cells were infected with an HCV viral stock (approximately 45 IU per cell) and simultaneously treated with Telaprevir, the test compounds, or the solvent control. The culture medium was removed 96 h after inoculation, and the total intracellular RNA and total intracellular proteins were extracted with a Qiagen Kit according to the manufacturer’s instructions. Intracellular HCV RNA was quantified using a one-step real time RT-PCR kit (Invitrogen). Cytotoxicity was tested by the MTT assay, and IC50 values were calculated by the Reed and Muench methods.

[5] = test system: HepG2.2.15 cells; assay: Cytotoxicity in HepG2.2.15 cells (CPE); type: cell-based, human; conditions: 3 + 3 days
Method: Cells were cultured for 3 days at 37 °C in a 5% CO2 atmosphere in an incubator, and the medium was replaced with fresh medium containing the test compounds for an additional 3 days. The cells were subsequently monitored by CPE and the TC50 value was calculated using Reed and Muench analysis.

[6] = test system: Cox B3; assay: organism not typed; type: cell-based, Coxsackie viruses (Cox B3 Nancy strain); conditions: for IC50: Vero
[7] = test system: HBV; assay: Anti-HBV assay in HepG2.2.15 cells, viral DNA by real time PCR; type: cell-based, Hepatitis B virus; conditions: for IC50: Hepatitis B virus, HepG2.2.15, 144 h, intracellular viral DNA, 3 + 3 days
Method: The synthesized target compounds were assayed for their broad spectrum antiviral activity towards influenza A, HBV, HCV and Cox B3 virus in vitro. […] The inhibitory activities towards HBV and HCV were tested by real time PCR, and lamivudine (3TC) and teleprevir were used as positive controls, respectively.
The anti-HBV activities of test compounds and a positive control drug were tested in HepG2.2.15 cells. The HepG2.2.15 cells were cultured in 96-well plates and treated with the test compounds at 37 °C for 3 days. The medium was removed, and fresh medium containing the test compounds was added for an additional 3 days. The cells were harvested and intracellular DNA was extracted. The inhibition of viral DNA replication in treated cells versus untreated cells was determined by real time PCR.

[8] = test system: MDCK cells; assay: Cytotoxicity in MDCK cells (CPE); type: cell-based, Canine; conditions: 48 h, Reed & Muench
Method: as §1

| SMILES | TC50 (50% cytotoxic concentration), Cox B3 [1] [µM] | IC50 [2] [µM] | IC50 [3] [µM] | TC50 (50% cytotoxic concentration), HCV [4] [µM] | TC50 (50% cytotoxic concentration), HBV [5] [µM] | IC50 [6] [µM] | IC50 [7] [µM] | melting point [°C] | TC50 (50% cytotoxic concentration), Influenza A/hanfang/359/95 [8] [µM] | anti-HBV activity (in words) [7] | anti-influenza A activity (in words) ([3]; MDCK cells, CPE) | inhibitory activity towards Cox B3 (in words) ([6]; Vero cells, CPE) |
| --- | --- | --- | --- | --- | --- | --- | --- | --- | --- | --- | --- | --- |
| Clc1ccc(CNc2ccc3cc[nH]c3c2)cc1 [1a, (4-Chlorobenzyl)-(1H-indol-6-yl)-amine] | 8.34 | 1.4 | > 1.6 | 15.88 | 8.02 | 4.79 | 1.44 | 135 to 137 | 3.35 |  |  |  |
| C(=C\c1ccccc1)/CNc1ccc2cc[nH]c2c1 [1b, (E)-(1H-Indol-6-yl)-(3-phenylallyl)-amine] | 8.61 |  | > 1.65 |  | 3.21 | 2.86 | > 1.85 | 130 to 132 | 2.86 |  |  |  |
| Cc1ccc(CNc2ccc3cc[nH]c3c2)o1 [1c, (1H-Indol-6-yl)-(5-methylfuran-2-ylmethyl)-amine] | 25.15 | 2.77 | > 0.66 | 46.78 | 16.67 | 1.93 | > 5.56 | 100 to 102 | 4.52 | complete loss of antiviral activity |  |  |
| Cc1ccc(CNc2ccc3cc[nH]c3c2)s1 [1d, (1H-Indol-6-yl)-(5-methylthiophen-2-ylmethyl)-amine] | 66.10 |  | 11.8 |  | 28.87 | 1.69 | > 16.7 | 89 to 91 | 26.50 |  |  |  |
| COc1cc(CNc2ccc3ncoc3c2)cc(Br)c1O [2a, 4-(Benzooxazol-6-ylaminomethyl)-2-bromo-6-methoxyphenol] | 55.13 | 33 | > 10.6 | 89.63 | 28.87 | 3.52 | > 16.7 | 129 to 131 | 64.04 |  |  |  |
| O=[N+]([O-])c1ccc(CNc2ccc3ncoc3c2)cc1 [2b, Benzooxazol-6-yl-(4-nitrobenzyl)-amine] | 257.52 | > 66.7 | 41.3 | >200 | 16.67 | 31.3 | > 5.56 | 154 to 156 | 288.23 |  |  |  |
| C(=C\c1ccccc1)/CNc1ccc2ncoc2c1 [2c, (E)-Benzooxazol-6-yl-(3-phenylallyl)-amine] | 103.36 | 10.5 | 11.6 | 105.44 | 28.87 | 1.24 | > 16.7 | 100 to 103 | 133.16 |  |  |  |
| c1csc(CNc2ccc3ncoc3c2)c1 [2d, Benzooxazol-6-yl-thiophen-2-ylmethylamine] | 100.35 | > 66.7 | 34.4 | 136.53 |  | 9.29 |  | 62 to 64 | 434.24 |  |  |  |
| Clc1ccc(CNc2ccc3ncoc3c2)s1 [2e, Benzooxazol-6-yl-(5-chlorothiophen-2-ylmethyl)-amine] | 29.08 | 17.7 | 11 | 45.78 | 19.25 | 3.55 | > 11.1 | 100 to 102 | 87.30 |  |  |  |
| c1ncc(CNc2ccc3ncoc3c2)cn1 [2f, Benzooxazol-6-yl-pyrimidin-5-ylmethyl-amine] | 295.10 |  | > 98.3 |  |  | 56.7 |  | 175 to 177 | 425.44 |  |  |  |
| c1cnc2c(CNc3ccc4ncoc4c3)cccc2c1 [2g, Benzooxazol-6-yl-quinolin-8-ylmethylamine] | 80.80 | 14.2 | 9.04 | 27.57 |  | 8.98 |  | 98 to 100 | 56.04 |  |  |  |
| Nc1ccn([C@@H]2CS[C@H](CO)O2)c(=O)n1 [3TC, lamivudine, reference compound] |  |  |  |  | >100 |  | 1.85 |  |  |  |  |  |
| O=[N+]([O-])c1cccc(CNc2ccc3ncsc3c2)c1 [3c, Benzothiazol-6-yl-(3-nitrobenzyl)-amine] | 112.45 |  | 12.5 |  |  | 7.23 |  | 126 to 128 | 45.01 |  |  |  |
| O=[N+]([O-])c1ccc(CNc2ccc3ncsc3c2)cc1 [3d, Benzothiazol-6-yl-(4-nitrobenzyl)-amine] | 181.3 | 22.5 | 3.36 | 142.86 | 9.62 | 1.82 | > 5.56 |  | 272.01 |  |  |  |
| c1csc(CNc2ccc3ncsc3c2)c1 [3h, Benzothiazol-6-yl-thiophen-2-ylmethylamine] | 65.03 | 47.6 | 6.58 | 153.72 |  | 10.4 |  | 148 to 150 | 78.14 |  |  |  |
| c1ccc2c(CNc3ccc4ncsc4c3)c3ccccc3cc2c1 [3k, Anthracen-9-ylmethyl-benzothiazol-6-yl-amine] | 2.09 |  | > 0.41 |  |  |  |  | 174 to 176 | 1.73 |  | complete loss in activity | no inhibitory activity |
| C(=C\c1ccccc1)/CNc1ccc2nc[nH]c2c1 [4a, (E)-(3H-Benzoimidazol-5-yl)-(3-phenyl-allyl)-amine] | 25.75 | 5.51 | 4.93 | 79.04 |  | 6.38 |  |  | 14.84 |  |  |  |
| CCOC(=O)C1=C[C@@H](OC(CC)CC)[C@H](NC(C)=O)[C@@H](N)C1 [Oseltamivir, oseltamivir, reference compound] |  |  | 19 |  |  |  |  |  | 4030.42 |  |  |  |
| NC(=O)c1ncn([C@@H]2O[C@H](CO)[C@@H](O)[C@H]2O)n1 [RBV, ribavirin, reference compound] |  |  | 8.76 |  |  | 2120 |  |  |  |  |  |  |
| CCC[C@H](NC(=O)[C@@H]1[C@H]2CCC[C@H]2CN1C(=O)[C@@H](NC(=O)[C@@H](NC(=O)c1cnccn1)C1CCCCC1)C(C)(C)C)C(=O)C(=O)NC1CC1 [Telaprevir, telaprevir, reference compound] |  | 0.011 |  | 32.12 |  |  |  |  |  |  |  |  |
